What was measured:
RON (human) = RON (human) (Homo sapiens, UniProt Q04912); test: RON (human) AlphaScreen kinase assay, Km of ATP; type: biochemical; settings: AlphaScreen, Km of ATP; read-out: RON biochemical IC50
In short: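 Detection used PT66 AlphaScreen beads added in Tris pH 7.5/NaCl/EDTA/BSA buffer, read after 1 h incubation. Vehicle-only DMSO wells served as controls.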

MET (human) = MET (human) (Homo sapiens, UniProt P08581); test: MET (human) AlphaScreen kinase assay, Km of ATP; type: biochemical; settings: AlphaScreen, Km of ATP; read-out: Met biochemical IC50
Sequence of MET (human) (P08581 25-1390): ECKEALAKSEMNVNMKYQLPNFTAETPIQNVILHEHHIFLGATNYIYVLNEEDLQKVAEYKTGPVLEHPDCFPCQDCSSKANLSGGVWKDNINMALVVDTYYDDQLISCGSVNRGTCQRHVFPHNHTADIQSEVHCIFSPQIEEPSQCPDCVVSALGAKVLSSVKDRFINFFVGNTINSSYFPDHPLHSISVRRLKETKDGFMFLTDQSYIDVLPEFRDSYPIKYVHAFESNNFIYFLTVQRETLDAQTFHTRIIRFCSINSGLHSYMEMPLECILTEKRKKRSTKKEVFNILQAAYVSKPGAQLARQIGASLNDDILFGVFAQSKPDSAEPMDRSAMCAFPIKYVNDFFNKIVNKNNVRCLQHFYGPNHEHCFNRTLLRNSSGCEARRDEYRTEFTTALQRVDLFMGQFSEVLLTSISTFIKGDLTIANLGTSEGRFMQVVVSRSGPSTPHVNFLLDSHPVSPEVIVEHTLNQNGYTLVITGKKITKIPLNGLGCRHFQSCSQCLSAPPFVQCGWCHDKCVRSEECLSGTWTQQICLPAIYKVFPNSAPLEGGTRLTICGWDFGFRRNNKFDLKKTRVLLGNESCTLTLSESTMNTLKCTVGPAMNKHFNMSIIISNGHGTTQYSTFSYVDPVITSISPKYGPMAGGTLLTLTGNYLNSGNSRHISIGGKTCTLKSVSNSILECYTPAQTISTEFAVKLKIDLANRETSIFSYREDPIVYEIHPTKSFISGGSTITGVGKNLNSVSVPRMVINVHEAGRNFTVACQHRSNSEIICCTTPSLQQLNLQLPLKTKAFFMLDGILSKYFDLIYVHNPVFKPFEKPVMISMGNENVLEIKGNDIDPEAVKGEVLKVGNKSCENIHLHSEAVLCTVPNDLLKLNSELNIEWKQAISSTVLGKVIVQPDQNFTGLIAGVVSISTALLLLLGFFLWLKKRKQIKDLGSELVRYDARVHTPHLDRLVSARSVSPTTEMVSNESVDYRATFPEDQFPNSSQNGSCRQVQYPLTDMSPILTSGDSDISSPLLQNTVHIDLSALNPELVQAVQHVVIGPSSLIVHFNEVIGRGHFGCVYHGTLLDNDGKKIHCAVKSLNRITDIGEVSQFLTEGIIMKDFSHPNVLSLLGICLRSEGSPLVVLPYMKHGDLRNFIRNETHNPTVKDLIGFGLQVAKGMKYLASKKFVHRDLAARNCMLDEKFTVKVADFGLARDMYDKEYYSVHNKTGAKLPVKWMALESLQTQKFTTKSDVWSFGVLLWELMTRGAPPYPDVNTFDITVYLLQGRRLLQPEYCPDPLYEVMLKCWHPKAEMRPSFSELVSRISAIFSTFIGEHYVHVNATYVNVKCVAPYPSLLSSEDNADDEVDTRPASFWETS
In short: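 Human MET at lot-optimised concentration in 50 mM Tris pH 7.4 buffer with 1 mM DTT, compound at 1% DMSO final; enzyme starts the reaction, 60 min at RT.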

Sequence of RON (human) (Q04912 25-1400): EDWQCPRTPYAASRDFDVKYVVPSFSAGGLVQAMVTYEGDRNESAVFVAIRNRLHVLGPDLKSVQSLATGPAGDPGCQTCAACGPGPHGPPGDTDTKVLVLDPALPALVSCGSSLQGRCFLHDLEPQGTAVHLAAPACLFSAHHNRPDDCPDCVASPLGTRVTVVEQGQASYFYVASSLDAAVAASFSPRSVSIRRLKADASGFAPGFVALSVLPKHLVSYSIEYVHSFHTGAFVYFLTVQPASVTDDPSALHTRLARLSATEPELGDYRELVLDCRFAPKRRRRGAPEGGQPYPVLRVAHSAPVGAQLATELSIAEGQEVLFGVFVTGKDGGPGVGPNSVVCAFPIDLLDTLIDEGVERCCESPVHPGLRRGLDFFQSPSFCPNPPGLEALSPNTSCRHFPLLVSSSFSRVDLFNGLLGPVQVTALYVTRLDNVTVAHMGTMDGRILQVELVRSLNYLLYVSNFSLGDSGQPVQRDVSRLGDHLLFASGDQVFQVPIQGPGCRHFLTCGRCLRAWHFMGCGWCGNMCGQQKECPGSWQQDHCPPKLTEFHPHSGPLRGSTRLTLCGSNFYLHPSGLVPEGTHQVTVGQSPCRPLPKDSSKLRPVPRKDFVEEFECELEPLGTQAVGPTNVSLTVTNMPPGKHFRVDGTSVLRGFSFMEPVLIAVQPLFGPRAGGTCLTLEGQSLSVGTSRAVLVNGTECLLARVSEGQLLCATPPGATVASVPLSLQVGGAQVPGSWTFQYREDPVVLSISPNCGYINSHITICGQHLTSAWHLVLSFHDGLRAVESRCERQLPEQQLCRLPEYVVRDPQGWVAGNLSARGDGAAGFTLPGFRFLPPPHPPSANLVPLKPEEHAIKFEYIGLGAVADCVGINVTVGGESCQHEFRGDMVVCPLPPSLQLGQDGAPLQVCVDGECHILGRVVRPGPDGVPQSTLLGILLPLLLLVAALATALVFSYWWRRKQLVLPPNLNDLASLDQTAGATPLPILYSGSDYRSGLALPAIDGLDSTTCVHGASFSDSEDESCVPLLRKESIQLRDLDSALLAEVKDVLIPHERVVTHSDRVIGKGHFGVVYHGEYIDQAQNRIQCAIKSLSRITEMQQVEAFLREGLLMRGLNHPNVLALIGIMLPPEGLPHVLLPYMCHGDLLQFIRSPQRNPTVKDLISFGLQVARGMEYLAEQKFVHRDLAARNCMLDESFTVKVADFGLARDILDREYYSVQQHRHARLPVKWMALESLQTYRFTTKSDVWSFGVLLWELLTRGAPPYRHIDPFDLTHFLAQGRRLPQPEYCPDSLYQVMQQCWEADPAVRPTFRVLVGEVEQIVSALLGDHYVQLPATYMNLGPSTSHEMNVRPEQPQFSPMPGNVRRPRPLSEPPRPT

SMILES	IC50 (RON (human))	IC50 (MET (human))
CC(Oc1c(N)ncc2c(-c3cnn(C4CCNCC4)c3)coc12)c1ccc(C(N)=O)cc1 (centres unmarked) [Example 420, 4-{1-[6-Amino-3-(1-piperidin-4-yl-1H-pyrazol-4-yl)furo[3,2-c]pyridin-7-yloxy]ethyl}benzamide]	5 to 20 µM	0.5 to 5 µM
CC(Oc1c(N)ncc2c(-c3cnn(C4CCNCC4)c3)coc12)c1c(F)cccc1F (centres unmarked) [Example 383, 7-[1-(2,6-Difluorophenyl)ethoxy]-3-(1-piperidin-4-yl-1H-pyrazol-4-yl)furo[3,2-c]pyridin-6-ylamine]	0.5 to 5 µM	< 0.5 µM
C[C@@H](Oc1c(N)ncc2c(-c3cc(C(=O)O)cs3)coc12)c1c(Cl)ccc(F)c1Cl [Example 325, 5-{6-Amino-7-[(R)-1-(2,6-dichloro-3-fluorophenyl)ethoxy]furo[3,2-c]pyridin-3-yl}thiophene-3-carboxylic acid]	5 to 20 µM	5 to 20 µM
C[C@@H](Oc1c(N)ncc2c(C3=CCN(C4CCC4)CC3)coc12)c1c(Cl)ccc(F)c1Cl [Example 44, 3-(1-Cyclobutyl-1,2,3,6-tetrahydropyridin-4-yl)-7-[(R)-1-(2,6-dichloro-3-fluorophenyl)-ethoxy]-furo[3,2-c]pyridin-6-ylamine]	< 0.5 µM	< 0.5 µM
CC(=O)Nc1cccc(-c2coc3c(O[C@H](C)c4c(Cl)ccc(F)c4Cl)c(N)ncc23)c1 [Example 78, N-(3-{6-Amino-7-[(R)-1-(2,6-dichloro-3-fluorophenyl)ethoxy]-furo[3,2-c]pyridin-3-yl}phenyl)acetamide]	0.5 to 5 µM	0.5 to 5 µM
COCCCNC(=O)c1coc2c(O[C@H](C)c3c(Cl)ccc(F)c3Cl)c(N)ncc12 [Example 191, 6-Amino-7-[(R)-1-(2,6-dichloro-3-fluorophenyl)ethoxy]furo[3,2-c]pyridine-3-carboxylic acid (3-methoxypropyl)amide]	0.5 to 5 µM	0.5 to 5 µM
C[C@@H](Oc1c(N)ncc2c(C3=CCN(C(=O)C4(O)CC4)CC3)coc12)c1c(Cl)ccc(F)c1Cl [Example 19, (4-{6-Amino-7-[(R)-1-(2,6-dichloro-3-fluorophenyl)-ethoxy]-furo[3,2-c]pyridin-3-yl}-3,6-dihydro-2H-pyridin-1-yl)-(1-hydroxycyclopropyl)-methanone]	0.5 to 5 µM	0.5 to 5 µM
C[C@H](Oc1c(N)ncc2c(-c3cnn(C4CCNCC4)c3)coc12)c1ccccn1 [Example 395, 3-(1-Piperidin-4-yl-1H-pyrazol-4-yl)-7-((S)-1-pyridin-2-yl-ethoxy)furo[3,2-c]pyridin-6-ylamine]	0.5 to 5 µM	0.5 to 5 µM
C[C@@H](Oc1c(N)ncc2c(-c3ccc(C(=O)N4CCC(O)C4)cc3)coc12)c1c(Cl)ccc(F)c1Cl (some centres unmarked) [Example 299]	0.5 to 5 µM	0.5 to 5 µM
Nc1ncc2c(-c3cnn(C4CCNCC4)c3)coc2c1O[C@H](c1ccccc1)C(F)(F)F [Example 392, 3-(1-Piperidin-4-yl-1H-pyrazol-4-yl)-7-((R)-2,2,2-trifluoro-1-phenylethoxy)furo[3,2-c]pyridin-6-ylamine]	0.5 to 5 µM	< 0.5 µM
C[C@@H](Oc1c(N)ncc2c(C3=CCN(C(=O)C4CCCCC4)CC3)coc12)c1c(Cl)ccc(F)c1Cl [Example 16, (4-{6-Amino-7-[(R)-1-(2,6-dichloro-3-fluorophenyl)-ethoxy]-furo[3,2-c]pyridin-3-yl}-3,6-dihydro-2H-pyridin-1-yl)-cyclohexylmethanone]	0.5 to 5 µM	0.5 to 5 µM
C[C@@H](Oc1c(N)ncc2c(-c3cnn(C4CCNCC4)c3)c(Br)oc12)c1c(Cl)ccc(F)c1Cl [Example 167, 2-Bromo-7-[(R)-1-(2,6-dichloro-3-fluorophenyl)ethoxy]-3-(1-piperidin-4-yl-1H-pyrazol-4-yl)-furo[3,2-c]pyridin-6-ylamine]	0.5 to 5 µM	< 0.5 µM
C[C@@H](Oc1c(N)ncc2c(-c3ccc(CN4CCSCC4)s3)coc12)c1c(Cl)ccc(F)c1Cl [Example 219, 7-[(R)-1-(2,6-Dichloro-3-fluorophenyl)ethoxy]-3-(5-thiomorpholin-4-ylmethylthiophen-2-yl)furo[3,2-c]pyridin-6-ylamine]	0.5 to 5 µM	0.5 to 5 µM
C[C@H](O)C(=O)N1CC=C(c2coc3c(O[C@H](C)c4c(Cl)ccc(F)c4Cl)c(N)ncc23)CC1 [Example 227, (S)-1-(4-{6-Amino-7-[(R)-1-(2,6-dichloro-3-fluorophenyl)ethoxy]-furo[3,2-c]pyridin-3-yl}-3,6-dihydro-2H-pyridin-1-yl)-2-hydroxypropan-1-one]	0.5 to 5 µM	< 0.5 µM
C[C@@H](Oc1c(N)ncc2c(-c3ccc(C(=O)O)cc3)coc12)c1c(Cl)ccc(F)c1Cl [Example 65, 4-{6-Amino-7-[(R)-1-(2,6-dichloro-3-fluorophenyl)ethoxy]-furo[3,2-c]pyridin-3-yl}benzoic Acid]	0.5 to 5 µM	0.5 to 5 µM
C[C@@H](Oc1c(N)ncc2c(C3=CCN(CC(=O)N(C)C)CC3)coc12)c1c(Cl)ccc(F)c1Cl [Example 200, 2-(4-{6-Amino-7-[(R)-1-(2,6-dichloro-3-fluorophenyl)ethoxy]-furo[3,2-c]pyridin-3-yl}-3,6-dihydro-2H-pyridin-1-yl)-N,N-dimethylacetamide]	0.5 to 5 µM	< 0.5 µM
Cc1ccnc(C)c1C(C)Oc1c(N)ncc2c(-c3cnn(C4CCNCC4)c3)coc12 (centres unmarked) [Example 362, 7-[1-(2,4-Dimethylpyridin-3-yl)ethoxy]-3-(1-piperidin-4-yl-1H-pyrazol-4-yl)furo[3,2-c]pyridin-6-ylamine]	0.5 to 5 µM	< 0.5 µM
CC(Oc1c(N)ncc2c(-c3cnn(C4CCNCC4)c3)coc12)c1cc(F)cc(-c2ccn[nH]2)c1 (centres unmarked) [Example 450, 7-{1-[3-Fluoro-5-(2H-pyrazol-3-yl)phenyl]ethoxy}-3-(1-piperidin-4-yl-1H-pyrazol-4-yl)furo[3,2-c]pyridin-6-ylamine]	0.5 to 5 µM	< 0.5 µM
C[C@@H](Oc1c(N)ncc2c(C3=CCN(C(=O)NC(C)(C)C)CC3)coc12)c1c(Cl)ccc(F)c1Cl [Example 148, 4-{6-Amino-7-[(1R)-1-(2,6-dichloro-3-fluorophenyl)ethoxy]furo[3,2-c]pyridin-3-yl}-N-tert-butyl-3,6-dihydropyridine-1(2H)-carboxamide]	0.5 to 5 µM	< 0.5 µM

The remaining lines, values ahead:

IC50 (RON (human))	IC50 (MET (human))	SMILES
0.5 to 5 µM	0.5 to 5 µM	C[C@@H](Oc1c(N)ncc2c(C3=CCN(C(=O)N4CCCCC4)CC3)coc12)c1c(Cl)ccc(F)c1Cl [Example 32, (4-{6-Amino-7-[(R)-1-(2,6-dichloro-3-fluorophenyl)-ethoxy]-furo[3,2-c]pyridin-3-yl}-3,6-dihydro-2H-pyridin-1-yl)-piperidin-1-ylmethanone]
< 0.5 µM	< 0.5 µM	C[C@@H](Oc1c(N)ncc2c(C3=CCN(C(=O)[C@@H]4CCCCN4)CC3)coc12)c1c(Cl)ccc(F)c1Cl [Example 238, (4-{6-Amino-7-[(R)-1-(2,6-dichloro-3-fluorophenyl)ethoxy]-furo[3,2-c]pyridin-3-yl}-3,6-dihydro-2H-pyridin-1-yl)-(S)-piperidin-2-ylmethanone]
< 0.5 µM	< 0.5 µM	COc1cccc(CC(C)Oc2c(N)ncc3c(-c4cnn(C5CCNCC5)c4)coc23)c1 (centres unmarked) [Example 437, 7-[2-(3-Methoxyphenyl)-1-methylethoxy]-3-(1-piperidin-4-yl-1H-pyrazol-4-yl)furo[3,2-c]pyridin-6-ylamine]
< 0.5 µM	< 0.5 µM	C[C@@H](Oc1c(N)ncc2c(C3=CCN(C(=O)CN)CC3)coc12)c1c(Cl)ccc(F)c1Cl [Example 253, 2-Amino-1-[4-{6-amino-7-[(1R)-1-(2,6-dichloro-3-fluorophenyl)ethoxy]furo[3,2-c]pyridin-3-yl}-3,6-dihydropyridin-1(2H)-yl]ethanone]
< 0.5 µM	< 0.5 µM	C[C@@H](Oc1c(N)ncc2c(C3=CCN(C(=O)N4CCNCC4)CC3)coc12)c1c(Cl)ccc(F)c1Cl [Example 33, (4-{6-Amino-7-[(R)-1-(2,6-dichloro-3-fluorophenyl)-ethoxy]-furo[3,2-c]pyridin-3-yl}-3,6-dihydro-2H-pyridin-1-yl)-piperazin-1-ylmethanone]
< 0.5 µM	< 0.5 µM	C[C@@H](Oc1c(N)ncc2c(-c3ccc(CN4CCCC4)s3)coc12)c1c(Cl)ccc(F)c1Cl [Example 213, 7-[(R)-1-(2,6-Dichloro-3-fluorophenyl)ethoxy]-3-(5-pyrrolidin-1-ylmethylthiophen-2-yl)-furo[3,2-c]pyridin-6-ylamine]
< 0.5 µM	< 0.5 µM	C[C@@H](Oc1c(N)ncc2c(-c3ccc(CN(C)C)s3)coc12)c1c(Cl)ccc(F)c1Cl [Example 214, 7-[(R)-1-(2,6-Dichloro-3-fluorophenyl)ethoxy]-3-(5-dimethyl-aminomethylthiophen-2-yl)-furo[3,2-c]pyridin-6-ylamine]
< 0.5 µM	< 0.5 µM	CCN1CCN(C(=O)N2CC=C(c3coc4c(O[C@H](C)c5c(Cl)ccc(F)c5Cl)c(N)ncc34)CC2)CC1 [Example 27, (4-{6-Amino-7-[(R)-1-(2,6-dichloro-3-fluorophenyl)-ethoxy]-furo[3,2-c]pyridin-3-yl}-3,6-dihydro-2H-pyridin-1-yl)-(4-ethylpiperazin-1-yl)-methanone]
< 0.5 µM	< 0.5 µM	C[C@@H]1CN(C(=O)N2CC=C(c3coc4c(O[C@H](C)c5c(Cl)ccc(F)c5Cl)c(N)ncc34)CC2)C[C@H](C)N1C (relative stereo) [Example 221, (4-{6-Amino-7-[(R)-1-(2,6-dichloro-3-fluorophenyl)ethoxy]-furo[3,2-c]pyridin-3-yl}-3,6-dihydro-2H-pyridin-1-yl)-((3R*,5S*)-3,4,5-trimethylpiperazin-1-yl)-methanone]
